Molecular target: T1, purified PDE1A enzyme (Homo sapiens, UniProt P54750)
Assay: In vitro PDE1A assay, dose response (Biomol Cyclic Nucleotide Phosphodiesterase Assay Kit, colorimetric)
Assay type: biochemical
Conditions: 10 μM; read-out: inhibition of PDE1A (positive control, dose response assay)
Procedure, shortened: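 Purified PDE1A with 100 μM cAMP and 5′-nucleotidase, incubated 45 min at 37° C in Tris 20 mM pH 7.4 with calmodulin, MgCl2 and CaCl2; released phosphate read by malachite-green absorbance at 615 nm. Duplicate 8-point ⅓ dilutions from 20 μM in 1% DMSO; 10 μM vardenafil defines 100% inhibition.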

inhibition at 10 µM | Structure (SMILES)
100% | CCCc1nc(C)c2c(=O)[nH]c(-c3cc(S(=O)(=O)N4CCN(CC)CC4)ccc3OCC)nn12 [Vardenafil, reference compound]

Same assay, conditions: 100 μM cAMP, 45 min at 37° C., 8 points from 20 μM, duplicate

Structure (SMILES) | IC50
CCCc1nn(C)c2c(=O)[nH]c(NCc3cc(C(F)(F)F)cc(C(F)(F)F)c3)nc12 [Example 31, 5-(3,5-bis(trifluoromethyl)benzylamino)-1-methyl-3-propyl-1H-pyrazolo[4,3-d]pyrimidin-7(6H)-one] | > 500 nM
CCCc1nn(C)c2c(=O)[nH]c(N(C)Cc3cccc4ccccc34)nc12 [Example 58, 1-methyl-5-(methyl(naphthalen-1-ylmethyl)amino)-3-propyl-1H-pyrazolo[4,3-d]pyrimidin-7(6H)-one] | > 500 nM
Cn1nc(C2CCCC2)c2nc(N3CCCCC3)[nH]c(=O)c21 [Example 85, 3-cyclopentyl-1-methyl-5-(piperidin-1-yl)-1H-pyrazolo[4,3-d]pyrimidin-7(6H)-one] | > 500 nM
CCCc1nn(C)c2c(=O)[nH]c(N(C)CCc3ccc(OC)c(OC)c3)nc12 [Example 20, 5-((3,4-dimethoxyphenethyl)(methyl)amino)-1-methyl-3-propyl-1H-pyrazolo[4,3-d]pyrimidin-7(6H)-one] | > 500 nM
CCCc1nn(C)c2c(=O)[nH]c(NCc3c(-c4ccccc4)noc3C)nc12 [Example 51, 1-methyl-5-((5-methyl-3-phenylisoxazol-4-yl)methylamino)-3-propyl-1H-pyrazolo[4,3-d]pyrimidin-7(6H)-one] | 101 to 500 nM
CCCc1nn(C)c2c(=O)[nH]c(NCc3cccc(N4CCCC4)c3)nc12 [Example 26, 1-methyl-3-propyl-5-(3-(pyrrolidin-1-yl)benzylamino)-1H-pyrazolo[4,3-d]pyrimidin-7(6H)-one] | 101 to 500 nM

Second part, the molecule after the results:

IC50 | Structure (SMILES)
101 to 500 nM | CCCc1nn(C)c2c(=O)[nH]c(N(C)CCC)nc12 [Example 30, 1-methyl-5-(methyl(propyl)amino)-3-propyl-1H-pyrazolo[4,3-d]pyrimidin-7(6H)-one]
< 100 nM | Cc1nc(-c2ccccc2)sc1CN(C)c1nc2c(C(C)(C)C)nn(C)c2c(=O)[nH]1 [Example 80, 3-tert-butyl-1-methyl-5-(methyl((4-methyl-2-phenylthiazol-5-yl)methyl)amino)-1H-pyrazolo[4,3-d]pyrimidin-7(6H)-one]
< 100 nM | CCC(C)CN(Cc1cccc(N2CCOCC2)c1)c1nc2c(C(C)(C)C)nn(C)c2c(=O)[nH]1 (stereo not shown) [Example 117, 3-tert-butyl-1-methyl-5-((2-methylbutyl)(3-morpholinobenzyl)amino)-1H-pyrazolo[4,3-d]pyrimidin-7(6H)-one]
101 to 500 nM | CCCc1nn(C)c2c(=O)[nH]c(N(C)Cc3ccc(OCCN4CCOCC4)cc3)nc12 [Example 49, 1-methyl-5-(methyl(4-(2-morpholinoethoxy)benzyl)amino)-3-propyl-1H-pyrazolo[4,3-d]pyrimidin-7(6H)-one]
101 to 500 nM | CCCc1nn(C)c2c(=O)[nH]c(N(C)Cc3cccc(-c4cncnc4)c3)nc12 [Example 12, 1-methyl-5-(methyl(3-(pyrimidin-5-yl)benzyl)amino)-3-propyl-1H-pyrazolo[4,3-d]pyrimidin-7(6H)-one]
101 to 500 nM | CCCc1nn(C)c2c(=O)[nH]c(N(C)Cc3cccc(-c4csc(C)n4)c3)nc12 [Example 65, 1-methyl-5-(methyl(3-(2-methylthiazol-4-yl)benzyl)amino)-3-propyl-1H-pyrazolo[4,3-d]pyrimidin-7(6H)-one]
< 100 nM | CC(C)CN(C)c1nc2c(C(C)(C)C)nn(C)c2c(=O)[nH]1 [Example 99, 3-tert-butyl-5-(isobutyl(methyl)amino)-1-methyl-1H-pyrazolo[4,3-d]pyrimidin-7(6H)-one]
< 100 nM | CCCc1nn(C)c2c(=O)[nH]c(N(C)Cc3cc(-c4ccccc4)on3)nc12 [Example 25, 1-methyl-5-(methyl((5-phenylisoxazol-3-yl)methyl)amino)-3-propyl-1H-pyrazolo[4,3-d]pyrimidin-7(6H)-one]
< 100 nM | CCCc1nn(C)c2c(=O)[nH]c(N(CCC(C)(C)C)Cc3cccc(N4CCOCC4)c3)nc12 [Example 108, 5-((3,3-dimethylbutyl)(3-morpholinobenzyl)amino)-1-methyl-3-propyl-1H-pyrazolo[4,3-d]pyrimidin-7(6H)-one]

Molecular target: T1, purified PDE1A enzyme
Assay: In vitro PDE1A primary screening assay (Cisbio cAMP dynamic htrf kit)
Assay type: biochemical
Conditions: 100 nM cAMP, read-out: inhibition of PDE1A (control compounds, primary screening)
Excerpt: For the primary screening, an assay using the cAMP dynamic htrf kit from Cisbio (catnr 62AM2PEB) was used. Its principle is based on HTRF® technology (Homogeneous Time-Resolved Fluorescence). The method is a competitive immunoassay between native cAMP and the cAMP labeled with XL665. The tracer binding is visualized by a monoclonal antibody against cAMP, labeled with Cryptate. The specific signal (i.e. energy transfer) is inversely proportional to the concentration of cAMP in the sample (see FIG. 1).
For the enzymatic reaction a mix of 20 μL is made with purified PDE1A enzyme, 100 nM cAMP and the compound (10 μM in a final concentration of 1% DMSO) in a black 384-plate. The reaction buffer is Tris 20 mM pH 7.4, 4 μg/mL calmodulin, 3 mM MgCl2, 1.5 mM CaCl2, 0.2 mg/mL BSA and 0.001% Brij-35. After an incubation of 30 minutes at room temperature, the reaction is stopped by the addition of 10 μL labelled cAMP-XL665 and 10 μL anti-cAMP-Cryptate. After 1 hour incubation at room temperature, the readout is performed on the Envision (excitation 360 nm; emission donor 615 nm emission acceptor 665 nm).
PDE1A hydrolyses cAMP into 5′AMP; this low cAMP concentration will result in a high signal. A PDE1A inhibitor will result in a decrease of the signal.
As a positive control we used 10 μM Vardenafil (100% inhibition), as negative control is used 1% DMSO (0% inhibition), as variable control 10 μM Zaprinast (+/−50% inhibition) is used and as negative control compound 10 μM Ro-20-1724 (0% inhibition). The positive and negative control were used to calculate z′ and PIN values.
All compounds were screened in single at 10 μM. The hit criterium was set at PIN 50 (50% inhibition).

inhibition at 10 µM | Structure (SMILES)
100% | CCCc1nc(C)c2c(=O)[nH]c(-c3cc(S(=O)(=O)N4CCN(CC)CC4)ccc3OCC)nn12 [Vardenafil, reference compound]
~50% | CCCOc1ccccc1-c1nc2nn[nH]c2c(=O)[nH]1 [Zaprinast]

Same assay, conditions: 10 μM, 100 nM cAMP

inhibition of PDE1A (control compounds, primary screening) | Structure (SMILES)
0% | CCCCOc1cc(CC2CNC(=O)N2)ccc1OC (stereo not shown) [Ro-20-1724]

Source: patent US20080242661A1, “Novel compounds useful for the treatment of degenerative & inflammatory diseases” (priority 2006, published 2008)
